Starred links: 1 amine or outer side, 2 acyl side, 3 side chain; linkers in the order of their positions; H or OH if unused. Positions of bridges follow the written chain, without caps; N, C: chain ends. Residues, ends and D or L forms follow the SMILES beside them. No end group written: not given here. *: point of attachment. TBMB = c1c(C[*:1])cc(C[*:3])cc1C[*:2]; Cam = NC(=O)C*
Assays:
Chymotrypsin = assay: Peptide conjugate digestion with Chymotrypsin; type: in vitro ADME; on Peptide digestion, intactness scale: key: +++: substantially intact; −: completely cleaved
Protocol: (§1) For methods, see Example 3 following. The proteolysis was undertaken at 37° C. Cathepsin G and kalikrein reactions were carried out in 10 mM Tris pH 7.4, 150 mM NaCl, 10 mM MgCl2, 1 mM CaCl2, 0.1% BSA, 0.01% Triton X100, 5% DMSO. Chymotrypsin reactions were carried out in 100 mM Tris pH 7.4, 10 mM CaCl2. Pronase and proteinase K reactions were carried out in 100 mM Tris pH 7.4, 0.5% SDS. Subtilisin reactions were carried out in 50 mM KH2PO4 pH 7.5. Trypsin reactions were carried out in 67 mM sodium phosphate pH 7.6. Reaction conditions with serum involve dissolving the peptide in 1×PBS (total volume 24 μl) and 6 μl of human serum added to the reaction.
(§2) Peptides (linear and conjugates) were dissolved in water at a concentration of 1 mg/ml, giving an effective concentration of ˜0.5 mM stock solutions and the concentration determined using amino acid analysis. 2 μl of peptide conjugates ([…]) (˜30 μM in reactions depending on actual molecular weight) were dissolved in reaction buffer (see below) in a total reaction volume of 30 μl, followed by the protease (typically in the range 1, 0.1 and 0.01 μg per reaction), and samples were incubated at 37° C. for 1 hr. 10 μl aliquots were quenched into 10 μl of 1% TFA. Samples were analysed by MALDI-TOF mass spectrometry to identify the fragment peaks and thus determine the site of cleavage. Where there was ambiguity as to the cleavage site samples were analysed by either by MALDI-TOF-TOF (Bruker Ultraflex 3) or by Linear Ion Trap (Thermoscientific Orbitrap XL) to determine accurate masses.

[1] = Resistance to proteases in serum; type: in vitro ADME, human; conditions: 37° C.
Protocol: as §1

Pronase = assay: Peptide conjugate digestion with Pronase; type: in vitro ADME; further: key: +++: substantially intact; −: completely cleaved
Protocol: as §1, §2

Cathepsin G = biological target: T1, Cathepsin G (Homo sapiens, UniProt P08311); assay: Peptide conjugate digestion with Cathepsin G; type: in vitro ADME; further: key: +++: substantially intact; −: completely cleaved
T1 sequence (P08311 21-244): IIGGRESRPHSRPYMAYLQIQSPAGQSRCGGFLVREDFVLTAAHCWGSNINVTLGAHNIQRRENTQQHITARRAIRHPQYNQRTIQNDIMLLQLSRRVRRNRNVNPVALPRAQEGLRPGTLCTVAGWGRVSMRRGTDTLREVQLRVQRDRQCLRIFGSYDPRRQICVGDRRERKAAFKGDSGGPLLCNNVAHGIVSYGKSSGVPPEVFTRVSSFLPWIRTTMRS
Protocol: as §1, §2

Trypsin = assay: Peptide conjugate digestion with Trypsin; type: in vitro ADME; on Peptide digestion, intactness scale: key: +++: substantially intact; −: completely cleaved
Protocol: as §1, §2

[2] = biological target: T2, biotinylated MDM2 peptide (res 2-125) (Homo sapiens, UniProt Q00987); assay: Phage ELISA, binding to MDM2; conditions: 5 mM DTT 20 min, then chymotrypsin 50 μg/ml 2 min
T2 construct: biotinylated MDM2 peptide (res 2-125)
Protocol: 0.6 μg/mL of biotinylated MDM2 peptide (res 2-125) was immobilized on a streptavidin-coated plate (Roche). Plate was blocked with PBSM (but 4% in milk powder) and linear or TBMB-conjugated phage (10^7 TU/well in PBSM in the presence or absence of 5 mM DTT) was incubated on the plate for 50 min at room temperature. Similarly, phage was first reduced in 5 mM DTT for 20 min, treated with chymotrypsin (50 μg/ml in PBS) for 2 min, mixed with PBSM (final concentration) and incubated on the plate for 50 min at room temperature. Phage was detected using an anti-M13-HRP monoclonal antibody (1:5000, Amersham).

MDM2 (res 2-125) = MDM2 (res 2-125) (Homo sapiens, UniProt Q00987); assay: Fluorescence anisotropy titration, affinity for MDM2; type: binding
Protocol: Titration experiments were run on a Horiba Jobin Yvon fluorimeter equipped with the Hamilton Microlab titrator controlled by laboratory software. […] The slit widths for excitation and emission were 5 nm and 15 nm and the integration time 10 s was used for each measurement. The intrinsic fluorescence of tryptophan in peptides 10, 48 was used to measure their binding affinity for MDM2 (res 2-125). The experiments were performed at 23° C. in PBS, 5 mM DTT. Usually 250 μl of MDM2 (150 μM) was titrated into 1.2 ml of peptide (1 μM). Titration data were analyzed with a standard 1:1 binding model by using the quadratic solution to the equilibrium Kd=[A][B]/[AB]. […] The fitting equation contained an extra term to account for linear drift.

various proteases = type: in vitro ADME
Protocol: as §1
(§3) Peptides (linear and conjugates) were dissolved in water at a concentration of 1 mg/ml, giving an effective concentration of ˜0.5 mM stock solutions and the concentration determined using amino acid analysis. […] Samples were analysed by MALDI-TOF mass spectrometry to identify the fragment peaks and thus determine the site of cleavage. Where there was ambiguity as to the cleavage site samples were analysed by either by MALDI-TOF-TOF (Bruker Ultraflex 3) or by Linear Ion Trap (Thermoscientific Orbitrap XL) to determine accurate masses.

Kalikrein = Kalikrein (Homo sapiens, UniProt P03952); assay: Peptide conjugate digestion with Kalikrein; type: in vitro ADME; set-up: Peptide digestion, intactness scale: key: +++: substantially intact; −: completely cleaved
Protocol: as §1, §2

[3] = Peptide conjugate digestion with Chymotrypsin; type: in vitro ADME; conditions: isolated enzyme chymotrypsin, pH 7.4; chymotrypsin 0.1 μg, after 1 hr; read-out: fraction cleaved by chymotrypsin; on Peptide digestion, intactness scale: key: +++: substantially intact; −: completely cleaved
Protocol: as §1, §2

Proteinase K = Proteinase K (Parengyodontium album, UniProt P06873); assay: Peptide conjugate digestion with Proteinase K; type: in vitro ADME; set-up: key: +++: substantially intact; −: completely cleaved
Protocol: as §1, §2

Subtilisin = assay: Peptide conjugate digestion with Subtilisin; type: in vitro ADME; further: key: +++: substantially intact; −: completely cleaved
Protocol: as §1, §3

[4] = Kd, peptide+MDM2, λex=295 nm, 23° C., PBS, 5 mM DTT
[5] = affinity for MDM2, synthetic peptide, sub-micromolar, stated range
[6] = mass spectrometric analysis of cleaved species

Sequence of Kalikrein (P03952 20-638): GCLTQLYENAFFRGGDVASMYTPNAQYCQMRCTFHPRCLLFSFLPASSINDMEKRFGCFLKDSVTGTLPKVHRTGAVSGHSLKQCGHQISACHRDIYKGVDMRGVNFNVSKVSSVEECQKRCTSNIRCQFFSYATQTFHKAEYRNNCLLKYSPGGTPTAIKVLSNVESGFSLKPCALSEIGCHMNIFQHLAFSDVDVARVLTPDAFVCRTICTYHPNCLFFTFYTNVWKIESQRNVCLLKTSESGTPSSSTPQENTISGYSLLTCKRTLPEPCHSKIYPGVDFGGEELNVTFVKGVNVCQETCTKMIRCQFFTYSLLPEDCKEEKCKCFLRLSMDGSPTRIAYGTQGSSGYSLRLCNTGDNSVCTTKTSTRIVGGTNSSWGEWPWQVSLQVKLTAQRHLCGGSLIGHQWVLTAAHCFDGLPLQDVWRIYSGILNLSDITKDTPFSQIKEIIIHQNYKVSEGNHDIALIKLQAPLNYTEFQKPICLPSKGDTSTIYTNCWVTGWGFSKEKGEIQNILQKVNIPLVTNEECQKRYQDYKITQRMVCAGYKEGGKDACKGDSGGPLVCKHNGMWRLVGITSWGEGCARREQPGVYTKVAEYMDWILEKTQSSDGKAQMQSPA
Sequence of MDM2 (res 2-125) (Q00987 2-125, species assumed): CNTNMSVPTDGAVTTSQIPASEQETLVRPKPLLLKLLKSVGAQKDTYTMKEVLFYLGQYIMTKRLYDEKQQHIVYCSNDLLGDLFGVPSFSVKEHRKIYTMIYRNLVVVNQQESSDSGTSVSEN
Sequence of Proteinase K (P06873 106-384): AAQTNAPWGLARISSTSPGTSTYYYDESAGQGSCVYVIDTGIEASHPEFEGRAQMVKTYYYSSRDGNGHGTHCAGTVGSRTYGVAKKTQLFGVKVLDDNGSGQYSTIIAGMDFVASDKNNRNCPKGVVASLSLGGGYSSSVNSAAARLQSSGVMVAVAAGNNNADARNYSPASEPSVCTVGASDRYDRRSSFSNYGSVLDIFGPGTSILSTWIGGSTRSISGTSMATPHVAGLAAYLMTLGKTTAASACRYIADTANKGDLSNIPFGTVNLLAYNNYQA
T2 sequence (Q00987 2-125, species assumed): as the sequence (Q00987 2-125, species assumed) above

CC(C)C[C@H](NC(=O)[C@H](C)NC(=O)[C@H](CCC(=O)O)NC(=O)[C@H](CC(=O)O)NC(=O)[C@H](C)NC(=O)[C@@H]1CCCN1C(=O)[C@H](CSCC(N)=O)NC(=O)[C@H](CC(N)=O)NC(=O)[C@H](CCCNC(=N)N)NC(=O)[C@H](Cc1ccccc1)NC(=O)[C@H](CCCNC(=N)N)NC(=O)[C@H](CC(=O)O)NC(=O)[C@H](CO)NC(=O)[C@H](CSCC(N)=O)NC(=O)[C@H](C)N)C(=O)N[C@@H](CSCC(N)=O)C(=O)NCC(=O)O [PK15 linear, AC*SDRFRNC*PADEALC*G] (H-AC(Cam)SDRFRNC(Cam)PADEALC(Cam)G-OH)
Peptide digestion, intactness scale (Chymotrypsin; Chymotrypsin 0.01, 37° C.): +++ | Peptide digestion, intactness scale (Chymotrypsin; Chymotrypsin 1, 37° C.): − | Peptide digestion, intactness scale (Chymotrypsin; Chymotrypsin 10, 37° C.): − | time within which digested by the proteases in serum [1]: ≤ 2 h | Peptide digestion, intactness scale (Pronase; Pronase 0.01, 37° C.): +++ | Peptide digestion, intactness scale (Pronase; Pronase 10, 37° C.): − | Peptide digestion, intactness scale (Cathepsin G; Cathepsin G 0.1, 37° C.): − | Peptide digestion, intactness scale (Cathepsin G; Cathepsin G 1 (μg per reaction), 37° C.): − | Peptide digestion, intactness scale (Trypsin; Trypsin 1, 37° C.): − | Peptide digestion, intactness scale (Trypsin; Trypsin 10, 37° C.): −

CC(C)[C@@H]1NC(=O)[C@@H](NC(=O)[C@@H](N)CO)CSCc2cc3cc(c2)CSC[C@H](NC(=O)[C@H]([C@@H](C)O)NC(=O)[C@H](Cc2c[nH]c4ccccc24)NC(=O)CNC(=O)[C@H](Cc2ccccc2)NC(=O)[C@H](CCCNC(=N)N)NC1=O)C(=O)N[C@@H](CC(=O)O)C(=O)N[C@@H](CC(N)=O)C(=O)N[C@@H](CO)C(=O)N[C@@H](Cc1c[nH]c2ccccc12)C(=O)N[C@@H](Cc1c[nH]cn1)C(=O)NCC(=O)N[C@H](C(=O)N[C@@H](CCCCN)C(=O)NCC(=O)O)CSC3 [PEP48] (HELM PEPTIDE1{S.C.V.R.F.G.W.T.C.D.N.S.W.H.G.C.K.G}|CHEM1{[c1c(C[*:1])cc(C[*:3])cc1C[*:2]]}$PEPTIDE1,CHEM1,2:R3-1:R1|PEPTIDE1,CHEM1,9:R3-1:R2|PEPTIDE1,CHEM1,16:R3-1:R3$$$V2.0)
binding to MDM2 after proteolysis [2]: resistant to proteolysis | Kd (MDM2 (res 2-125); Kd, peptide+MDM2, λex=280 nm): 760 nM | Kd (MDM2 (res 2-125); [4]): 567 nM | Kd (MDM2 (res 2-125); [5]): 250 to 750 nM

CG4L1-PK15L1 TBMB: bicyclic CG4L1-PK15L1 (WO 2009/098450) (ALCIFDLGFCSDRFRNCPADE; linker 3-10-17 via TBMB)
factor of resistance, TBMB conjugate versus linear (various proteases): 1-100 fold

CC(C)C[C@@H]1NC(=O)[C@H](C)NC(=O)[C@H](CCC(=O)O)NC(=O)[C@H](CC(=O)O)NC(=O)[C@H](C)NC(=O)[C@@H]2CCCN2C(=O)[C@@H]2CSCc3cc(cc(c3)CSC[C@@H](C(=O)NCC(=O)O)NC1=O)CSC[C@H](NC(=O)[C@H](C)N)C(=O)N[C@@H](CO)C(=O)N[C@@H](CC(=O)O)C(=O)N[C@@H](CCCNC(=N)N)C(=O)N[C@@H](Cc1ccccc1)C(=O)N[C@@H](CCCNC(=N)N)C(=O)N[C@@H](CC(N)=O)C(=O)N2 [PK15-TBMB] (HELM PEPTIDE1{A.C.S.D.R.F.R.N.C.P.A.D.E.A.L.C.G}|CHEM1{[c1c(C[*:1])cc(C[*:3])cc1C[*:2]]}$PEPTIDE1,CHEM1,2:R3-1:R1|PEPTIDE1,CHEM1,9:R3-1:R2|PEPTIDE1,CHEM1,16:R3-1:R3$$$V2.0)
Peptide digestion, intactness scale (Kalikrein; Kalikrein 0.01, 37° C.): +++ | Peptide digestion, intactness scale (Kalikrein; Kalikrein 0.1, 37° C.): +++ | Peptide digestion, intactness scale (Kalikrein; Kalikrein 1, 37° C.): +++ | factor of resistance, TBMB conjugate versus linear (Kalikrein; attack by kallikrein, by comparing different concentrations of enzyme): about 100 fold | cleavage by chymotrypsin (Chymotrypsin; 1 μg chymotrypsin, after 1 hour): completely cleaved | Peptide digestion, intactness scale (Chymotrypsin; Chymotrypsin 0.01, 37° C.): +++ | Peptide digestion, intactness scale (Chymotrypsin; Chymotrypsin 0.1, 37° C.): +++ | Peptide digestion, intactness scale (Chymotrypsin; Chymotrypsin 1, 37° C.): +++ | chymotrypsin cleavage site (Chymotrypsin; [6]): same cleavage sites | metabolised at 1 h, 20 μM [3]: ~50% | time for which proteolysis in serum is resisted ([1]; later times not yet tested): at least 48 hours | Peptide digestion, intactness scale (Proteinase K; Proteinase K 0.01, 37° C.): +++ | Peptide digestion, intactness scale (Proteinase K; Proteinase K 0.1, 37° C.): +++ | Peptide digestion, intactness scale (Proteinase K; Proteinase K 1, 37° C.): +++ | Peptide digestion, intactness scale (Pronase; Pronase 0.01, 37° C.): +++ | Peptide digestion, intactness scale (Pronase; Pronase 0.1, 37° C.): +++ | Peptide digestion, intactness scale (Subtilisin; Subtilisin 0.009, 37° C.): +++ | Peptide digestion, intactness scale (Subtilisin; Subtilisin 9, 37° C.): − | Peptide digestion, intactness scale (Cathepsin G; Cathepsin G 0.01, 37° C.): +++ | Peptide digestion, intactness scale (Cathepsin G; Cathepsin G 0.1, 37° C.): +++ | Peptide digestion, intactness scale (Trypsin; Trypsin 0.01, 37° C.): +++ | Peptide digestion, intactness scale (Trypsin; Trypsin 10, 37° C.): − | trypsin cleavage sites (Trypsin; [6]): same cleavage sites | time to complete cleavage at R7 (Trypsin; trypsin 0.1 μg): ≤ 5 min

CC(C)C[C@@H]1NC(=O)[C@H](CCC(=O)O)NC(=O)[C@@H](NC(=O)[C@@H](N)CO)CSCc2cc3cc(c2)CSC[C@H](NC(=O)[C@H](CCCCN)NC(=O)[C@@H]2CCCN2C(=O)[C@H](CC(N)=O)NC(=O)[C@H](Cc2c[nH]c4ccccc24)NC1=O)C(=O)N[C@@H](CCCNC(=N)N)C(=O)N[C@@H](CC(C)C)C(=O)N[C@@H](CO)C(=O)N1CCC[C@H]1C(=O)N[C@@H](Cc1ccccc1)C(=O)N[C@@H](CCC(=O)O)C(=O)N[C@H](C(=O)N[C@@H](CCCCN)C(=O)NCC(=O)O)CSC3 [PEP10] (HELM PEPTIDE1{S.C.E.L.W.N.P.K.C.R.L.S.P.F.E.C.K.G}|CHEM1{[c1c(C[*:1])cc(C[*:3])cc1C[*:2]]}$PEPTIDE1,CHEM1,2:R3-1:R1|PEPTIDE1,CHEM1,9:R3-1:R2|PEPTIDE1,CHEM1,16:R3-1:R3$$$V2.0)
binding to MDM2 after proteolysis [2]: resistant to proteolysis | Kd (MDM2 (res 2-125); [4]): 267 nM | Kd (MDM2 (res 2-125); [5]): 250 to 750 nM

Reference: patent publication US9644201B2, “Structured peptide processing” (BICYCLE THERAPEUTICS LIMITED, priority 2009, dated 2017)
